# Test results from patent US11680060B2, “Bicycloheptane pyrrolidine orexin receptor agonists” (Merck Sharp & Dohme LLC, priority 2020, dated 2023).
# Biological target: human OX2R (Homo sapiens (Human), UniProt O43614)
# Assay: IPOne (IP-1) assay in CHO cells expressing human OX2R
# Format: cell-based
# Details: for Emax: CHO, read-out: Emax (%); for IC50: CHO cells expressing human OX2R, IP-One detection, 2 hours incubation, EC50 = inflection point of four parameter logistic fit, read-out: hOX2R_IP_IC50
# Outline: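 CHO cells stably expressing human OX2R were stimulated with compound (10-point ½-log dilutions) for 2 h at 37 °C. IP-1 accumulation was read by HTRF (IP-One, 665/620 nm). EC50 from a four-parameter fit; % effect relative to 1 μM reference agonist control.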
# [1] = percentage of mean max effect of a reference compound at 1 uM (100% activity by comparison to Orexin A), human OX2R
# Chain of human OX2R (O43614 whole entry): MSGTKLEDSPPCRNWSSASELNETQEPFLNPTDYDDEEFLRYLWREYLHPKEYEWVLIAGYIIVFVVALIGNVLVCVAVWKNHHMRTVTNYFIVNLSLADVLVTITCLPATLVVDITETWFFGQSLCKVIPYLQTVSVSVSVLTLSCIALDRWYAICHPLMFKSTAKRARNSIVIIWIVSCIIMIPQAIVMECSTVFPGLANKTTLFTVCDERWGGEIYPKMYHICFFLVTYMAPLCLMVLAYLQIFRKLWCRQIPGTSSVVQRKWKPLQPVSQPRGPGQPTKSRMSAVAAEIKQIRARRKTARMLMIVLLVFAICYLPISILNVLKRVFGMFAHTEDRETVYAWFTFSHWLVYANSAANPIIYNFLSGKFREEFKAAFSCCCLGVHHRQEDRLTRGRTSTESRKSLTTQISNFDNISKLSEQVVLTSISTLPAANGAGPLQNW
Emax [1],IC50,Emax (%) [1],SMILES
101%,,,"COC(=O)N1[C@H](C)C[C@H](NS(=O)(=O)CF)[C@@H]1COC1CCC2(c3ncc(Cl)c(OC)n3)CC2C1 (stereo partly drawn) [Example 86, methyl (2R,3S,5R)-2-(((6-(5-chloro-4-methoxypyrimidin-2-yl)bicyclo[4.1.0]heptan-3-yl)oxy)methyl)-3-((fluoromethyl)sulfonamido)-5-methylpyrrolidine-1-carboxylate]"
102%,,,"COC(=O)N1[C@H](C)C[C@H](NS(C)(=O)=O)[C@@H]1CO[C@H]1CC[C@@]2(c3ncc(Cl)cn3)C[C@H]2C1 [Example 142, methyl (2R,3S,5R)-2-((((1S,3S,6R)-6-(5-chloropyrimidin-2-yl)bicyclo[4.1.0]heptan-3-yl)oxy)methyl)-5-methyl-3-(methylsulfonamido)pyrrolidine-1-carboxylate]"
96.5%,,,"COC(=O)N1[C@H](C)C[C@H](NS(=O)(=O)Cc2ccccc2)[C@@H]1CO[C@H]1CC[C@@]2(c3ncc(F)cn3)C[C@H]2C1 [Example 34, methyl (2R,3S,5R)-2-((((1S,3S,6R)-6-(5-fluoropyrimidin-2-yl)bicyclo[4.1.0]heptan-3-yl)oxy)methyl)-5-methyl-3-((phenylmethyl)sulfonamido)pyrrolidine-1-carboxylate]"
99.3%,0.37 nM,,"CC(C)OC(=O)N1CCC[C@H](NS(=O)(=O)CF)[C@@H]1CO[C@H]1CC[C@@]2(c3ncc(F)cn3)C[C@H]2C1 (single isomer, unassigned) [Example 124]"
103%,6.5 nM,,"CC(C)OC(=O)N1[C@H](C)C[C@H](NS(=O)(=O)CF)[C@@H]1CO[C@@H]1CC[C@]2(c3ncc(Cl)cn3)C[C@@H]2C1 (single isomer, unassigned) [Example 96]"
98.7%,,,"COC(=O)N1[C@H](C)C[C@H](NS(C)(=O)=O)[C@@H]1CO[C@@H]1CC[C@]2(c3ncc(Cl)cn3)C[C@@H]2C1 [Example 141, methyl (2R,3S,5R)-2-((((1R,3R,6S)-6-(5-chloropyrimidin-2-yl)bicyclo[4.1.0]heptan-3-yl)oxy)methyl)-5-methyl-3-(methylsulfonamido)pyrrolidine-1-carboxylate]"
,,100.9%,CC(C)OC(=O)N1[C@H](C)C[C@H](NS(=O)(=O)C(F)F)[C@@H]1COC1CC[C@]2(c3ncc(F)cn3)CC2C1 (stereo partly shown) [Example 110]
104%,,,"C[C@@H]1C[C@H](NS(C)(=O)=O)[C@H](CO[C@H]2CC[C@@]3(c4ncc(F)cn4)C[C@H]3C2)N1C(=O)OCC1(F)CC1 [Example 61, (1-fluorocyclopropyl)methyl (2R,3S,5R)-2-((((1S,3S,6R)-6-(5-fluoropyrimidin-2-yl)bicyclo[4.1.0]heptan-3-yl)oxy)methyl)-5-methyl-3-(methylsulfonamido)pyrrolidine-1-carboxylate]"
99.2%,,,"COC(=O)N1[C@H](C)C[C@H](NS(=O)(=O)CF)[C@@H]1CO[C@H]1CC[C@@]2(c3ncc(F)cn3)C[C@H]2C1 [Example 30, methyl (2R,3S,5R)-3-((fluoromethyl)sulfonamido)-2-((((1S,3S,6R)-6-(5-fluoropyrimidin-2-yl)bicyclo[4.1.0]heptan-3-yl)oxy)methyl)-5-methylpyrrolidine-1-carboxylate]"
102%,,,"CC(C)OC(=O)N1[C@H](C)C[C@H](NS(=O)(=O)C(F)F)[C@@H]1COC1CCC2(c3ncc(Cl)cn3)CC2C1 (stereo partly drawn) [Example 82, isopropyl (2R,3S,5R)-2-(((6-(5-chloropyrimidin-2-yl)bicyclo[4.1.0]heptan-3-yl)oxy)methyl)-3-((difluoromethyl)sulfonamido)-5-methylpyrrolidine-1-carboxylate]"
108%,,,"CC(C)OC(=O)N1CCC[C@H](NS(=O)(=O)C(F)F)[C@@H]1CO[C@H]1CC[C@@]2(c3ncc(F)cn3)C[C@H]2C1 [Example 121, isopropyl (2R,3S)-3-((difluoromethyl)sulfonamido)-2-((((1S,3S,6R)-6-(5-fluoropyrimidin-2-yl)bicyclo[4.1.0]heptan-3-yl)oxy)methyl)piperidine-1-carboxylate]"
